Assay results taken from patent US20190038597A1, “PREVENTION OF VASCULAR AND CARDIAC FIBROSIS VIA IRE1ALPHA INHIBITION” (McMaster University, priority 2017, published 2019).

Columns and labels:
[1] = system: SHR/L-NAME model of hypertension; experiment: Collagen content / fibrosis of vessels in L-NAME-treated SHRs; format: in vivo, rat; settings: 18 days
Method: 12-14 week old male SHRs were randomized to receive vehicle, L-NAME (50 mg/L) or L-NAME and 4μ8c (2.5 mg/kg/day i.p.) for 18 days. Aortas and carotid arteries were removed at sacrifice for mechanical and structural analysis. (A) Picro-Sirius Red staining of aorta and carotid artery sections (B) Determination of soluble collagen content in aorta and carotid arteries by Picro-Sirius Red-based assay. Stress-strain curves (C,E), elastic modulus-stress lines (D,F) and the slope of the elastic modulus-stress lines (G,H) were calculated. Data is presented as mean±SEM. *, p<0.05 vs. NT; #, p<0.05 vs. L-NAME. N≥4 per group; 2-5 segments of the thoracic aorta were analyzed per animal. In C to F, lines of best fit are bound by 95% confidence intervals (dotted lines). *, p<0.05.
12-14 week old male SHRs were used to determine the effect of pharmacological IRE1α inhibition on L-NAME-induced vascular stiffening. They were maintained on a 12-hour light-dark cycle with rat chow and water ad libitium. Animals were implanted with radio-telemetry devices (Data Science International, St. Paul, Minn., USA) one week before the start of the study. […]
The wet weight of aortic tissues was determined. […]
Tissues were fixed in 4% paraformaldehyde and subsequently embedded in paraffin. […] Collagen area density was calculated by dividing the PSR-stained area by the total area of the vessel.

[2] = system: primary rat renal fibroblasts; experiment: Picro-Sirius Red assay of collagen production in renal fibroblasts; format: cell-based; settings: AA2P, TGF-β1, 72 h co-treatment, FIG. 3
Method: Rat renal fibroblasts were treated with L-ascorbic acid-2-phosphate, TGF-β1 and 4μ8c for 72 h. Collagen production was measured by a Picro-Sirius Red assay. **, p<0.01.
VSMCs were isolated from the aortas of 5-week old WKY rats using the explant method^29. The thoracic aorta was removed from the animal and placed in ice-cold 5× Antibiotics-Antimycotics solution (ThermoFisher). The adventitia was gently removed and the aorta was cut longitudinally. The endothelial layer was removed by gentle scraping with forceps. The aorta was cut into 3 mm^2 squares and placed on a 6 well plate in DMEM/F12 medium containing 10% fetal bovine serum (FBS). Explants were incubated undisturbed in a 5% CO2 incubator at 37° C. for 1 week and then passaged. Sprague-Dawley renal fibroblasts were purchased (Cell Biologics) and cultured in low glucose DMEM/F12 medium containing 10% FBS, streptomycin (100 μgimp, and penicillin (100 U/ml, Invitrogen, Burlington, ON). Cells between passages 5 and 10 were used for experiments. Cells were cultured in medium containing 1% FBS overnight before treatment.
Collagen synthesis was measured using a Picro-Sirius Red-based assay as previously described^30. Briefly, cells cultured on a 96 well plate were fixed in methanol for 10 minutes at −20° C. […] Absorbance at 540 nm was measured using a Spectramax Plus Microplate Reader (Molecular Devices). […]

Cc1cc(=O)oc2c(C=O)c(O)ccc12 [4μ8c, 7-Hydroxy-4-methyl-2-oxo-2H-chromene-8-carbaldehyde]
Collagen content in homogenized aortic tissue ([1]; L-NAME+4μ8c group, PSR-based colorimetric assay): 47.10±2.88 μg/mg tissue | fibrosis and vascular stiffness in the hypertensive animals ([1]; SHR/L-NAME, 4μ8c 2.5 mg/kg/day i.p.): reduced | collagen levels in response to TGF-β1 [2]: reduced
